Reference: US10183014B2, “Ocular formulations for drug-delivery and protection of the anterior segment of the eye” (PanOptica, Inc., priority 2014, dated 2019)
Like-named read-outs stand apart in the source and are kept apart here.

Tests used:
AURKB (Aurora B) = AURKB (Aurora B) (Homo sapiens, UniProt Q96GD4); assay: In vitro inhibition of tyrosine kinases; type: biochemical; details: read-out: Mean % Inhibition at 1 μM Compound-I; 1 μM (568.9 ng/mL)
FGFR-2 = FGFR-2 (Homo sapiens, UniProt P21802); assay: In vitro inhibition of tyrosine kinases; type: biochemical
Chain of FGFR-2 (P21802 22-821, species assumed): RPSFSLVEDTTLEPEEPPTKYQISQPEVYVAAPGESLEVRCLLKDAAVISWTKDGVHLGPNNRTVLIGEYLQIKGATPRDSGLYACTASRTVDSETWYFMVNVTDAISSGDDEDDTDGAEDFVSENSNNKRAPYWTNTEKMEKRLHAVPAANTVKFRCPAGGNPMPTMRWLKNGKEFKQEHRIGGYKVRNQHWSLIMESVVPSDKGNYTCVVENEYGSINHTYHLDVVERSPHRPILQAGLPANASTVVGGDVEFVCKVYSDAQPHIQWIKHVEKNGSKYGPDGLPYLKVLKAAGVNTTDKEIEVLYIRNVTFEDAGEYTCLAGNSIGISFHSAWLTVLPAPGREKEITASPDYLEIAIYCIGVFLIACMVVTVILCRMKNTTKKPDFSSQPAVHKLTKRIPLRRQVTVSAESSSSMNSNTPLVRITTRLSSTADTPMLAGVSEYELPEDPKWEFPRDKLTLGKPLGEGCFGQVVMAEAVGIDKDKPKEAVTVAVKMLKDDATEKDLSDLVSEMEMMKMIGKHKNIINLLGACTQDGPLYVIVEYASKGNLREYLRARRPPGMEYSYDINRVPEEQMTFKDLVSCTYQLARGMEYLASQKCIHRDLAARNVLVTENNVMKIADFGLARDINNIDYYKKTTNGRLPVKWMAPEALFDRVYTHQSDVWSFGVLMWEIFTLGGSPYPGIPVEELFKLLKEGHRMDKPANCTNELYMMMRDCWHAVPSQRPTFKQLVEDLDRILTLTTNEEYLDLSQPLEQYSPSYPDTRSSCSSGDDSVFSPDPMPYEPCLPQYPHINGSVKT

FLT4 (VEGFR-3) = FLT4 (VEGFR-3) (Homo sapiens, UniProt P35916); assay: In vitro inhibition of tyrosine kinases; type: biochemical; details: read-out: Mean % Inhibition at 1 μM Compound-I; 1 μM (568.9 ng/mL)
Chain of FLT4 (VEGFR-3) (P35916 25-1363, species assumed): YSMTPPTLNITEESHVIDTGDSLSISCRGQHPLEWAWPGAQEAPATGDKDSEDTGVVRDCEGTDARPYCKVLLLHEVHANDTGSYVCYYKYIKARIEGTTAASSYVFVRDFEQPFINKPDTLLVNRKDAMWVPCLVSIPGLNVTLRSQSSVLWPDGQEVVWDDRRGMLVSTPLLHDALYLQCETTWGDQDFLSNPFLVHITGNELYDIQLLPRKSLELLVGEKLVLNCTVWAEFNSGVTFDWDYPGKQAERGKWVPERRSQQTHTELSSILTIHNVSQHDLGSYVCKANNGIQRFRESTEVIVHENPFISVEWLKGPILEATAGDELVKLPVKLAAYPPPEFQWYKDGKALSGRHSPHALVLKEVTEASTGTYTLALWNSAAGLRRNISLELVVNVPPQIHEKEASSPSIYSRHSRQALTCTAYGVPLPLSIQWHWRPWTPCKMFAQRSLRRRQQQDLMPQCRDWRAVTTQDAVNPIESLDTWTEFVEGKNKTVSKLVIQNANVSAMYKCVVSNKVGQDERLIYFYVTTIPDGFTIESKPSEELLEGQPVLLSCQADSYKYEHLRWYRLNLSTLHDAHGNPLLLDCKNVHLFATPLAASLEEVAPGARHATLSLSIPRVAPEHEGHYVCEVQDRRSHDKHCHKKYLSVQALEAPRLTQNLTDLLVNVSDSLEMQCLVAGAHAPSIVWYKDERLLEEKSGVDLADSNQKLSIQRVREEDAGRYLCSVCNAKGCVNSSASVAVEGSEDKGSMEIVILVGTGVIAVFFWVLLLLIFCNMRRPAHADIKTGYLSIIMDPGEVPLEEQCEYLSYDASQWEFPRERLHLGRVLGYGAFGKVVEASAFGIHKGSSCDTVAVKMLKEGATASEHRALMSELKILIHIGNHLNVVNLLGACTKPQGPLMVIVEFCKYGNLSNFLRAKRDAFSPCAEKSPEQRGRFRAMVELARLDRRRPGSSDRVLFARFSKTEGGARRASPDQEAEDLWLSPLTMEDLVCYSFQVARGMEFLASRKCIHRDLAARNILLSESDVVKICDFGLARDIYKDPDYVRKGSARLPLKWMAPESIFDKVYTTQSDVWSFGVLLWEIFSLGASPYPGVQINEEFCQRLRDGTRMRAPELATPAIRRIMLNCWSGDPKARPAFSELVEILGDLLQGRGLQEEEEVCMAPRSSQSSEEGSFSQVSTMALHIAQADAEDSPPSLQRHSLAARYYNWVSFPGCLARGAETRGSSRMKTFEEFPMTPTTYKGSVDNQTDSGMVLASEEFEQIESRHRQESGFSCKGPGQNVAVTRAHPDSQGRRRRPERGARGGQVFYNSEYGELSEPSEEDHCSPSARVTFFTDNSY

KDR (VEGFR-2) = KDR (VEGFR-2) (Homo sapiens, UniProt P35968); assay: In vitro inhibition of tyrosine kinases; type: biochemical; details: 300 nM (170.67 ng/mL)
ABL1 E255K = ABL1 E255K (Homo sapiens, UniProt P00519, E255K); assay: In vitro inhibition of tyrosine kinases; type: biochemical; details: read-out: Mean % Inhibition at 1 μM Compound-I; 1 μM (568.9 ng/mL)
ABL1 T315I = ABL1 T315I (Homo sapiens, UniProt P00519, T315I); assay: In vitro inhibition of tyrosine kinases; type: biochemical; details: read-out: Mean % Inhibition at 1 μM Compound-I; 1 μM (568.9 ng/mL)
FGR = FGR (Homo sapiens, UniProt P09769); assay: In vitro inhibition of tyrosine kinases; type: biochemical; details: read-out: Mean % Inhibition at 1 μM Compound-I; 1 μM (568.9 ng/mL)
Chain of FGR (P09769 whole entry, species assumed): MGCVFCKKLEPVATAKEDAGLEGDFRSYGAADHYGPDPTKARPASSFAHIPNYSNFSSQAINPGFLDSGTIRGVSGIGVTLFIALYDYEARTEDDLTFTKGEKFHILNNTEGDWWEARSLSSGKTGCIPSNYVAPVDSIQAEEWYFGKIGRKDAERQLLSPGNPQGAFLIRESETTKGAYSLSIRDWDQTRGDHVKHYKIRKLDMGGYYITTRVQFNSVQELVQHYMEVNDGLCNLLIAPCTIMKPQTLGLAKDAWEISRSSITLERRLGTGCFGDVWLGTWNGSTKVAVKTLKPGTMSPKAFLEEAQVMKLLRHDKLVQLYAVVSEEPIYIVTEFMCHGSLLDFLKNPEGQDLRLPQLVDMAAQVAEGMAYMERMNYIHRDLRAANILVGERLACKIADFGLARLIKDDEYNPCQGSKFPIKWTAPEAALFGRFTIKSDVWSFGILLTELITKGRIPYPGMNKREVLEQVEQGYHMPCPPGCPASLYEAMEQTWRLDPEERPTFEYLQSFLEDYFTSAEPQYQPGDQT

PDGFRA T674I = PDGFRA T674I (Homo sapiens, UniProt P16234, T674I); assay: In vitro inhibition of tyrosine kinases; type: biochemical; details: read-out: Mean % Inhibition at 1 μM Compound-I; 1 μM (568.9 ng/mL)
Chain of PDGFRA T674I (P16234 24-1089 T674I): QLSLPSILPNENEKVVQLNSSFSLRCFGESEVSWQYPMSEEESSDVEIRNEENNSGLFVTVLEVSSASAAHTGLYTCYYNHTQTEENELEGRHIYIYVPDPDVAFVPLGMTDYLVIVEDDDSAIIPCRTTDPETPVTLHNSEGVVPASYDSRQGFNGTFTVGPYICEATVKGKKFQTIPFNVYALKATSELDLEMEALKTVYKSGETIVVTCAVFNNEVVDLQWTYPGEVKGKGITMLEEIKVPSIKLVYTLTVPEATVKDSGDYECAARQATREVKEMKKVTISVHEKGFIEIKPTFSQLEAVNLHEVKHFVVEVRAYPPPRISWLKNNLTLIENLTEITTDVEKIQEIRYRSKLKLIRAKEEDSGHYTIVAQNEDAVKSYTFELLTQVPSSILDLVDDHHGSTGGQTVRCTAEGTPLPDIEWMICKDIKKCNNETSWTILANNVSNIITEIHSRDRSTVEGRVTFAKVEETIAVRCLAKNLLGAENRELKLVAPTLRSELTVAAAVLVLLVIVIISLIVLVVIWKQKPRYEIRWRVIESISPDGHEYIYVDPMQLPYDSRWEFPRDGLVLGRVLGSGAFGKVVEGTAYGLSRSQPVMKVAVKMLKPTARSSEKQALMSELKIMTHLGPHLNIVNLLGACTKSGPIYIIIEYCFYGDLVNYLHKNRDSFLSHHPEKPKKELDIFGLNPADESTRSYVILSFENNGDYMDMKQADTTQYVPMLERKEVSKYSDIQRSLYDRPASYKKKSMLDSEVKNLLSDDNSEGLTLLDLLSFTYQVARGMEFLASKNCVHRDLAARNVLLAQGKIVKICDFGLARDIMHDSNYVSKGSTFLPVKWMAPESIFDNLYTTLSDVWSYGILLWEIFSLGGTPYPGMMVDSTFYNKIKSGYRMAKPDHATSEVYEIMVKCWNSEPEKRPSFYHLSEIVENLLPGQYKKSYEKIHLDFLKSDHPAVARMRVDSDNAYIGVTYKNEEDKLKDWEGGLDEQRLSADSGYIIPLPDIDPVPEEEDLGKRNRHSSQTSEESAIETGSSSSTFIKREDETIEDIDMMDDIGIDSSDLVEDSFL

PTK6 (Brk) = PTK6 (Brk) (Homo sapiens, UniProt Q13882); assay: In vitro inhibition of tyrosine kinases; type: biochemical; details: read-out: Mean % Inhibition at 1 μM Compound-I; 1 μM (568.9 ng/mL)
Chain of PTK6 (Brk) (Q13882 whole entry, species assumed): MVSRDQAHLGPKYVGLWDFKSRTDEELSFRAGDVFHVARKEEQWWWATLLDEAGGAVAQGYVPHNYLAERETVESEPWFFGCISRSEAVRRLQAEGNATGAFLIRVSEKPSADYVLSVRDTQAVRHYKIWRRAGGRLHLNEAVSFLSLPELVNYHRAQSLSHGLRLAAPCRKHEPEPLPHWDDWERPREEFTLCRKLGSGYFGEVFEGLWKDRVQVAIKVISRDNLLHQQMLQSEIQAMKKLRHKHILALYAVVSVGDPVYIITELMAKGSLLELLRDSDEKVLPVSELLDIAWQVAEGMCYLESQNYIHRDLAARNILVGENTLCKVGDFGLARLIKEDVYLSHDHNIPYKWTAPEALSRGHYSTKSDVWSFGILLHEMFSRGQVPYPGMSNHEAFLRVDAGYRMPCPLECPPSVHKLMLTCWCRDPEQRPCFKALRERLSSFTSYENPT

[1] = 1- to 5-day PK with topical ocular Compound-I formulations (Example 5); type: in vivo, Dutch Belted rabbits; details: for concentration at 0.5 h / concentration at 8 h / concentration at 24 h / concentration at 4 h / concentration at 2 h / concentration at 1 h: Dutch Belted, rabbit, topical
Procedure: On day 1, Groups 1, 2, 4-6, 8, 10, 11, 13, 15, and 17 received one dose (q.d.) for either one (1) or four (4) days.
Peripheral retina and peripheral choroid samples were assayed only for Groups 1-8, 12, 14, and 16 per study protocol.

[2] = Concentrations of Compound-I in ocular fluids and tissues, 0.4% cyclodextrin solutions, 24-day study; type: in vivo, Dutch-Belted rabbits; details: 0.4% cyclodextrin-based solutions, twice daily, day 24, 1 hour after first daily dose; for concentration at 1 h: Dutch-Belted, rabbit, topical, 0.4 % (4 mg/mL)
Procedure: The ocular solution of Compound-I comprising cyclodextrin was prepared and tested in different groups of animals.

[3] = Ocular toxicology studies (tolerability and ocular tissue concentrations); type: in vivo, Dutch-Belted rabbits; details: for concentration at 29 days: Dutch-Belted, topical, 0.3 %, 0.3% Ophthalmic Gel Drop (with and without benzylalkonium chloride), twice daily
Source text: (§1) Retinal function was normal in all test article and vehicle treated groups during full-field electroretinograms performed in rabbits.

[4] = Ocular toxicology studies; type: in vivo, beagle dogs
Source text: as §1

pathologic angiogenesis = assay: Pathologic angiogenesis, murine cornea model, systemic administration; type: in vivo
[5] = Groups 1, 5: one dose day 1, 0.5 hr post-dose
[6] = Groups 1, 5: one dose day 1, 24 hr post-dose
[7] = discomfort, inflammation, corneal thinning
[8] = ophthalmic gel drops, topical ocular dosing

Chain of AURKB (Aurora B) (Q96GD4 whole entry, species assumed): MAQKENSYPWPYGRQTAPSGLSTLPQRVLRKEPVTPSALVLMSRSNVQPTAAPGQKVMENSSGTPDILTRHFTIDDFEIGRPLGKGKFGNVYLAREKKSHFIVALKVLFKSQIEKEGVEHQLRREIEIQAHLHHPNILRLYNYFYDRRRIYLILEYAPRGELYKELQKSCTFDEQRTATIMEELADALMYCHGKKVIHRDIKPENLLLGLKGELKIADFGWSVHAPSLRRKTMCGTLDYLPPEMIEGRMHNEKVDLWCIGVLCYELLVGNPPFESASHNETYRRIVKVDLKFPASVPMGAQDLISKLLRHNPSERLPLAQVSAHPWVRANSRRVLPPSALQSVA

Cl.NC(=O)c1c(OCc2c(F)cc(Br)cc2F)nsc1NC(=O)NCCCCN1CCCC1 [Compound-I, 3-[(4-bromo-2,6-difluorophenyl)methoxy]-5-[[[[4-(1-pyrrolidinyl)butyl]amino]carbonyl]amino]-4-isothiazolecarboxamide hydrochloride]
inhibition at 1 µM (AURKB (Aurora B)): 82%
inhibition at 0.3 µM (FGFR-2; read-out: Mean % Inhibition at 300 nM Compound-I, 300 nM (170.67 ng/mL)): 103%
inhibition at 1 µM (FGFR-2; read-out: Mean % Inhibition at 1 μM Compound-I, 1 μM (568.9 ng/mL)): 99%
inhibition at 1 µM (FLT4 (VEGFR-3)): 95%
Mean % Inhibition at 300 nM Compound-I (KDR (VEGFR-2)): completely inhibited
inhibition at 1 µM (ABL1 E255K): 90%
inhibition at 1 µM (ABL1 T315I): 101%
inhibition at 1 µM (FGR): 91%
inhibition at 1 µM (PDGFRA T674I): 86%
inhibition at 1 µM (PTK6 (Brk)): 88%
concentration at 0.5 h ([1]; aqueous humor, 30 μL (bilateral), Groups 1, 5: one dose day 1, 0.5 hr post-dose, read-out: Average Concentration Aqueous Humor): 1.62 nM
concentration at 8 h ([1]; aqueous humor, 30 μL (bilateral), Groups 1, 5: one dose day 1, 8 hr post-dose, read-out: Average Concentration Aqueous Humor): 6.67 nM
concentration at 24 h ([1]; aqueous humor, 30 μL (bilateral), Groups 1, 5: one dose day 1, 24 hr post-dose, read-out: Average Concentration Aqueous Humor): 3.03 nM
concentration at 4 h ([1]; aqueous humor, 30 μL bilateral (each eye), Group 5: one dose day 1, 4 hr post-dose, read-out: Average Concentration Aqueous Humor): 9.11 nM
concentration at 2 h ([1]; aqueous humor, 30 μL bilateral (each eye), Groups 1, 5: one dose day 1, 2 hr post-dose, read-out: Average Concentration Aqueous Humor): 8.62 nM
concentration at 1 h ([1]; aqueous humor, 30 μL bilateral, Groups 1, 5: one dose day 1, 1 hr post-dose, read-out: Average Concentration Aqueous Humor): 1.08 nM
concentration at 1 h ([1]; central choroid, 30 μL (bilateral), q.d. groups (2,4,6,8,10,11,13,15,17), 4 days, 1 hr after day 5 morning dose, read-out: Average Concentration Central Choroid): 196 nM
concentration at 24 h ([1]; central choroid, 30 μL (bilateral, each eye), q.d. groups (2,6,8,11,13), 4 days, 24 hr after day 5 morning dose, read-out: Average Concentration Central Choroid): 319 nM
concentration at 24 h ([1]; central choroid, 30 μL per eye (bilateral), b.i.d. groups (3,7), 4 days, 24 hr after day 5 morning dose, read-out: Average Concentration Central Choroid): 283 nM
concentration at 24 h ([1]; central choroid, 30 μL, q.d. groups (2,6,8,11,13), 4 days, 24 hr after day 5 morning dose, read-out: Average Concentration Central Choroid): 218 nM
concentration at 8 h ([1]; central retina, 30 μL (bilateral), Groups 1, 5: one dose day 1, 8 hr post-dose, read-out: Average Concentration Central Retina): 30.4 nM
concentration at 1 h ([1]; central retina, 30 μL (bilateral), q.d. groups (2,4,6,8,10,11,13,15,17), 4 days, 1 hr after day 5 morning dose, read-out: Average Concentration Central Retina): 36.3 nM
concentration at 24 h ([1]; central retina, 30 μL (bilateral), q.d. groups (2,6,8,11,13), 4 days, 24 hr after day 5 morning dose, read-out: Average Concentration Central Retina): 24.1 nM
concentration at 4 h ([1]; central retina, 30 μL bilateral (each eye), Group 5: one dose day 1, 4 hr post-dose, read-out: Average Concentration Central Retina): 29.9 nM
concentration at 2 h ([1]; central retina, 30 μL bilateral (each eye), Groups 1, 5: one dose day 1, 2 hr post-dose, read-out: Average Concentration Central Retina): 35.4 nM
concentration at 24 h ([1]; central retina, 30 μL per eye (bilateral), b.i.d. groups (3,7), 4 days, 24 hr after day 5 morning dose, read-out: Average Concentration Central Retina): 29.2 nM
concentration at 8 h ([1]; central retina, 30 μL per eye (bilateral), q.d. groups (2,6), 4 days, 8 hr after day 5 morning dose, read-out: Average Concentration Central Retina): 38 nM
concentration at 24 h ([1]; central retina, 30 μL per eye (bilateral), q.d. groups (2,6,8,11,13), 4 days, 24 hr after day 5 morning dose, read-out: Average Concentration Central Retina): 24.6 nM
concentration at 1 h ([1]; central retina, 30 μL, b.i.d. groups (3,7,9,12,14,16), 4 days, 1 hr after day 5 morning dose, read-out: Average Concentration Central Retina): 40.7 nM
concentration at 4 h ([1]; cornea, 30 μL (bilateral), Group 5: one dose day 1, 4 hr post-dose, read-out: Average Concentration Cornea): 14100 nM
concentration at 2 h ([1]; cornea, 30 μL bilateral (each eye), Groups 1, 5: one dose day 1, 2 hr post-dose, read-out: Average Concentration Cornea): 28100 nM
concentration at 1 h ([1]; cornea, 30 μL bilateral, Groups 1, 5: one dose day 1, 1 hr post-dose, read-out: Average Concentration Cornea): 16900 nM
concentration at 4 h ([1]; peripheral choroid, 30 μL (bilateral), Group 5: one dose day 1, 4 hr post-dose, read-out: Average Concentration Peripheral Choroid): 77.5 nM
concentration at 8 h ([1]; peripheral choroid, 30 μL (bilateral), Groups 1, 5: one dose day 1, 8 hr post-dose, read-out: Average Concentration Peripheral Choroid): 87.4 nM
concentration at 24 h ([1]; peripheral choroid, 30 μL (bilateral), Groups 1, 5: one dose day 1, 24 hr post-dose, read-out: Average Concentration Peripheral Choroid): 88 nM
concentration at 1 h ([1]; peripheral choroid, 30 μL bilateral, Groups 1, 5: one dose day 1, 1 hr post-dose, read-out: Average Concentration Peripheral Choroid): 47.3 nM
concentration at 24 h ([1]; peripheral choroid, 30 μL per eye (bilateral), b.i.d. groups (3,7), 4 days, 24 hr after day 5 morning dose, read-out: Average Concentration Peripheral Choroid): 892 nM
concentration at 1 h ([1]; peripheral choroid, 30 μL per eye (bilateral), b.i.d. groups (3,7,12,14,16), 4 days, 1 hr after day 5 morning dose, read-out: Average Concentration Peripheral Choroid): 765 nM
concentration at 8 h ([1]; peripheral retina, 30 μL (bilateral), Groups 1, 5: one dose day 1, 8 hr post-dose, read-out: Average Concentration Peripheral Retina): 33.3 nM
concentration at 24 h ([1]; peripheral retina, 30 μL (bilateral), Groups 1, 5: one dose day 1, 24 hr post-dose, read-out: Average Concentration Peripheral Retina): 15.1 nM
concentration at 1 h ([1]; peripheral retina, 30 μL (bilateral), q.d. groups (2,4,6,8), 4 days, 1 hr after day 5 morning dose, read-out: Average Concentration Peripheral Retina): 96.1 nM
concentration at 4 h ([1]; peripheral retina, 30 μL bilateral (each eye), Group 5: one dose day 1, 4 hr post-dose, read-out: Average Concentration Peripheral Retina): 31.2 nM
concentration at 0.5 h ([1]; peripheral retina, 30 μL bilateral, Groups 1, 5: one dose day 1, 0.5 hr post-dose, read-out: Average Concentration Peripheral Retina): 22.7 nM
concentration at 8 h ([1]; peripheral retina, 30 μL per eye (bilateral), q.d. groups (2,6), 4 days, 8 hr after day 5 morning dose, read-out: Average Concentration Peripheral Retina): 50.8 nM
concentration at 1 h ([1]; peripheral retina, 30 μL, b.i.d. groups (3,7,12,14,16), 4 days, 1 hr after day 5 morning dose, read-out: Average Concentration Peripheral Retina): 108 nM
Average Concentration Central Choroid ([1]; Group 5: one dose day 1, 4 hr post-dose): <LLOQ
Average Concentration Central Choroid [1, 5]: <LLOQ
Average Concentration Peripheral Choroid [1, 5]: <LLOQ
Average Concentration Central Choroid ([1]; Groups 1, 5: one dose day 1, 1 hr post-dose): <LLOQ
Average Concentration Central Choroid ([1]; Groups 1, 5: one dose day 1, 2 hr post-dose): <LLOQ
Average Concentration Central Choroid ([1]; Groups 1, 5: one dose day 1, 8 hr post-dose): <LLOQ
Average Concentration Central Choroid [1, 6]: <LLOQ
Average Concentration Central Retina [1, 6]: <LLOQ
Corneal concentration, range over solutions [2]: 6.49 to 30 µM
concentration at 1 h ([2]; aqueous humor, read-out: Aqueous humor concentration, range over solutions): 2 to 7 nM
concentration at 1 h ([2]; central retina, read-out: Central retina concentration, range over solutions): 53.1 to 124 nM
Microscopic evaluation of eyes ([3]; 0.3% w/v Tris-based suspension twice daily for 30 days): considered normal
Findings attributed to test-article or vehicle ([3]; 0.6% cyclodextrin-based solution, 30 days topical ocular dosing): no untoward findings
concentration at 29 days ([3]; rabbit, central choroid, read-out: Central Choroid [Compound I]): 340 to 496 nM
concentration at 29 days ([3]; rabbit, cornea, read-out: Cornea [Compound I]): 236000 to 260000 nM
Retinal function (full-field electroretinograms) ([3]; all test article groups): normal
Cornea concentration above which ocular side effects were more consistently observed [3, 7]: exceeded 100 μM
Corneal tissue exposure [3, 8]: ≥ 100 µM
Corneal concentration, Gel Drop compared to Tris-based suspensions ([3]; rabbit, in vivo): fifty-fold to hundred-fold higher
Corneal concentration, Gel Drop compared to cyclodextrin based solution ([3]; rabbit, in vivo): five-fold to fifteen-fold higher
Ocular tolerability (clinical ophthalmic examinations) ([3]; rabbit, in vivo): well tolerated
Reduction of corneal exposure versus Gel Drop ([3]; suspension-based and cyclodextrin formulations): 10-100 ×
Reduction in corneal concentrations, cyclodextrin-based solution versus equimolar Gel Drop ([3]; topical ocular dosing 1 to 30 days, hydrochloride): ~10 fold
Cornea concentration above which ocular side effects were more consistently observed [4, 7]: exceeded 100 μM
Corneal tissue exposure [4, 8]: ≥ 100 µM
Pathologic angiogenesis (pathologic angiogenesis): inhibit
